Results as given in PubChem BioAssay (NCI).
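Test compounds were applied to cells in 96-well plates for 48 hours at 5 doses. GI50 = concentration required for 50% inhibition of growth. The concentration for full growth arrest is given as TGI.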

Experiments:
Test in all cases: NCI tumour cell line growth inhibition, 48 h
PC-3 prostate = test system: PC-3 prostate
P388 leukemia = test system: P388 leukemia
HOP-18 NSCLC = test system: HOP-18 NSCLC
SN12K1 renal = test system: SN12K1 renal
P388/ADR leukemia = test system: P388/ADR leukemia
XF 498 CNS = test system: XF 498 CNS
LXFL 529 NSCLC = test system: LXFL 529 NSCLC
RXF-631 renal = test system: RXF-631 renal

With `Cn1c(=O)c(Cl)c(N=[N+]=[N-])c2ccccc21` the TGI (PC-3 prostate) was over 100 µM.
Work on `O=c1oc2ccc([N+](=O)[O-])cc2cc1Br` yielded a TGI (PC-3 prostate) of over 100 µM.
With `CC1=C2C3OC(=O)C(C)C3CCC2(C)C=CC1=Nc1ccccc1` (configuration not stated) the TGI (P388 leukemia) was over 100 µM, the TGI (HOP-18 NSCLC) was over 100 µM and the TGI (SN12K1 renal) was over 100 µM. The TGI (P388/ADR leukemia) was over 100 µM.
With `CC(=O)Nc1ccc(Sc2nnc(NC(C)=O)s2)cc1` the TGI (PC-3 prostate) was over 100 µM.
`COC1C(O)C(C)OC(OC2CCC3(C)C(CCC4C3C(O)CC3(C)C(C5=CC(=O)OC5)CCC43O)C2)C1O` (configuration not stated) was tested, and the TGI (PC-3 prostate) was 5.17 µM.
With `C=CCCCCCCCCC(=O)O` the TGI (P388 leukemia) was 379 µM, the TGI (XF 498 CNS) was 30.9 µM and the TGI (HOP-18 NSCLC) was 226 µM. It also gave a TGI (SN12K1 renal) of 209 µM and a TGI (P388/ADR leukemia) of 264 µM.
In the case of `COc1cc(C=O)cc(O)c1O`, the TGI (LXFL 529 NSCLC) is reported as over 100 µM.
In the case of `O=C1c2ccccc2C(=O)N1CC(CN1C(=O)c2ccccc2C1=O)(C(=O)OCc1ccccc1)C(=O)OCc1ccccc1`, the TGI (PC-3 prostate) is reported as over 100 µM.
With `O=c1c([OH2+])c(-c2ccc(O)cc2[O-])oc2cc(O)cc([O-])c12.O=c1c([OH2+])c(-c2ccc(O)cc2[O-])oc2cc(O)cc([O-])c12.[Ti+4]` the GI50 (LXFL 529 NSCLC) was over 100 µM, the TGI (LXFL 529 NSCLC) was over 100 µM and the GI50 (HOP-18 NSCLC) was over 100 µM. The TGI (HOP-18 NSCLC) was over 100 µM.
Molecule `COc1cccc2c1C(=O)c1c(O)c3c(c(O)c1C2=O)C[C@@](O)(C(=O)CO)CC3OC1CC(NCCCC(OC(C)=O)OC(C)=O)C(O)C(C)O1` (some centres not stated) has a TGI (LXFL 529 NSCLC) of 0.00872 µM, a GI50 (XF 498 CNS) of 0.0001 µM and a GI50 (HOP-18 NSCLC) of 0.00507 µM. For the same molecule, the TGI (RXF-631 renal) was 0.000897 µM.
In the case of `CCOC(=O)C(=O)NC12CC3CC(CC(C3)C1)C2`, the TGI (LXFL 529 NSCLC) is reported as over 100 µM, the TGI (XF 498 CNS) is reported as over 100 µM and the TGI (HOP-18 NSCLC) is reported as over 100 µM. For the same molecule, the TGI (RXF-631 renal) was over 100 µM.
